Data from patent publication US20250345436A1 (Hyloris Developments SA, priority 2023, published 2025).

Key:
physchem = type: physicochemical
Text: Atomoxetine HCl (API, active pharmaceutical ingredient) has good aqueous solubility. […] Human saliva has a pH normal range of 6.2-7.6 with 6.7 being the average pH. […] In the oral cavity, the pH is maintained near neutrality (6.7-7.3) by the saliva.
It is also evident that the solubilized form of atomoxetine is going to have a direct impact on taste buds thereby causing immediate bitterness upon drinking the oral solution.

[1] = cited from earlier work

solubility (physchem; aqueous buffer, Absolute Solubility) [mg/mL] | solubility (physchem; pH 4.5, aqueous buffer, Absolute Solubility) [mg/mL] | solubility (physchem; pH 6.8, aqueous buffer, Absolute Solubility) [mg/mL] | solubility (physchem; pH 6.8, aqueous buffer, solubility) [mg/mL] | solubility (physchem; pH 7.4, aqueous buffer, Absolute Solubility) [mg/mL] | solubility (physchem; simulated gastric fluid, Absolute Solubility) [mg/mL] | solubility (physchem; water, Absolute Solubility) [mg/mL] | Compound | size of self-assembled nanosized aggregates ([1]; in water above CMC) | critical micellar concentration (CMC) ([1]; in water) [wt %]
12.2 | 33.9 | 3.53 | 2.7 to 3.5 | 2.75 | 13.1 | 24.1 | CNCC[C@@H](Oc1ccccc1C)c1ccccc1.Cl [Atomoxetine HCl, (-)-N-Methyl-3-phenyl-3-(o-tolyloxy)-propylamine hydrochloride] | – | –
– | – | – | – | – | – | – | D-α-Tocopherol Polyethylene Glycol Succinate [Vitamin E TPGS] | about 13 nm | 0.02
